Results on one compound are retold here after paper PMC13477270 (Nature structural & molecular biology, 2025).

One experiment has as its system iTRIM37 KO RPE1 cells. In kind it is cell-based. Particulars: centrinone pretreatment, then TRIM37 knockout with doxycycline.
Experiment [1] has as its system iTRIM37 KO RPE1 cells (PLK4 inhibition). The format is cell-based. Particulars: centrinone 100 or 150 nM, before TRIM37 knockout with doxycycline.

For `COc1c(Nc2cc(C)[nH]n2)nc(Sc2ccc(S(=O)(=O)Cc3cccc([N+](=O)[O-])c3F)cc2F)nc1N1CCOCC1` [centrinone], the “frequency of centrobin condensate formation after centrosome loss” value in the experiment on iTRIM37 KO RPE1 cells was “at a frequency similar to that in constitutive TRIM37Δ cells with centrosomes”. Moreover, the centrosome depletion result in experiment [1] is listed as “depleted centrosomes”.
